Here are results for five compounds from patent publication US20090220507A1, “INHIBITION OF EXTRACELLULAR SIGNAL-REGULATED KINASE 1/2 AS A TREATMENT FOR CARDIAC HYPERTROPHY AND HEART FAILURE” (priority 2005, published 2009).

For one assay, the system named is ERK1/2. The experiment in a line: Western blot of phosphorylated ERK1/2 in isoproterenol-stimulated NRVMs. It counts as cell-based, rat. To be noted: for isoproterenol activation of ERK1/2 (phosphorylation): all time points (5, 30, 60 minutes, 6, 24, 33, 48 hours). As for the experimental part: (§1) Materials. Isoproterenol (Sigma) was dissolved in sterile H2O containing 1 mmol/L Ascorbic Acid, and the concentrations used are described in the results section.
(§2) Cell Culture. Neonatal rat cardiac ventricular myocytes (NRVMs) were cultured as previously described (Simpson et al., 1982; Simpson and Savion, 1982; Long et al., 1992; Waspe et al., 1990). Briefly, cells were isolated by trypsin digestion from the ventricles of 1-3 day old rats. Isolation procedures were done in a very gentle manner and cells were plated at a concentration of 1.5×10^5 cells per well in 12-well tissue culture plates in medium containing serum. 24 hours later the media was changed to serum free media containing insulin, transferin, bovine serum albumin, vitamin B12 and penicillin. Wells were pre-coated with a 0.1% gelatin solution and dried in a hood under UV lights. In addition, all media solutions were supplemented with Hepes (pH 7.5) to a final concentration of 20 mmol/L in order to buffer the pH of the media.
ERK1/2 Western Blots. Phosphorylated ERK1/2 protein extraction was performed essentially as described in Headley et al. (2004).
ERK1/2 activation is dependent on calcineurin and on CaMKII.
Background: Immunoblotting shows a protein as a band on a membrane.

In assay [1] the test system is β1-AR-mediated fetal gene expression in NRVMs. As to the kind of experiment: RNase protection assay of isoproterenol-induced fetal gene program mRNA in NRVMs. Format: cell-based, rat. As for the experimental part: as §1, §2
RNase Protection Assay. Total RNA was extracted by TRIZol (Invitrogen) and used in RNase protection assays (RPA). RPAs were performed essentially as described (Patten et al., 1996; Kinugawa et al., 2001). Briefly, 5 μg of total RNA was hybridized against probes specific to skeletal α-actin, SRCA2A, α-MyHC, β-MyHC, ANF, BNP and GAPDH. RNase protection experiments were performed using the RPAII kit (Ambion). RPA experiments were performed from mRNA extracted from a minimum of three different experiments.
RNase Protection Assay: Total RNA was extracted by TRIZol (Invitrogen) and used in RNase protection assays (RPA). RPAs were performed essentially as described (Patten et al., 1996; Kinuguwa et al., 2001). Briefly, 5 μg of total RNA was hybridized against probes specific to skeletal α-actin, SRCA2A, α-MyHC, β-MyHC, ANF, BNP and GAPDH. RNase protection experiments (RPAs) were performed using the RPAII kit (Ambion). RPA experiments were performed from mRNA extracted from a minimum of three different experiments.

Where [2] appears, read: inhibitor 1 hour before isoproterenol, RPA, mRNA normalized to GAPDH.
Setting [3] is: inhibitor alone, without isoproterenol.
Where [4] appears, read: inhibitor 1 hour after ISO treatment, mRNA extracted 48 hours later, RPA.

Entries after “also recorded” stand apart in the source; their conditions may differ. * marks the point of attachment. Myristoyl = CCCCCCCCCCCCCC(=O)*

“14-22 Amide myristoylated (Myristoyl-GRTGRRNAI-NH2; SMILES CCCCCCCCCCCCCC(=O)NCC(=O)N[C@@H](CCCNC(=N)N)C(=O)N[C@H](C(=O)NCC(=O)N[C@@H](CCCNC(=N)N)C(=O)N[C@@H](CCCNC(=N)N)C(=O)N[C@@H](CC(N)=O)C(=O)N[C@@H](C)C(=O)N[C@H](C(N)=O)[C@@H](C)CC)[C@@H](C)O; UniProt P61925 15-23, looked up, fragment) [PKI14-22]”: in the assay with ERK1/2 (inhibitor pre-treatment), the “isoproterenol activation of ERK1/2 (phosphorylation)” value is “did not prevent”.

With `NCCOB(c1ccccc1)c1ccccc1` [AFB-30, 2-APB], the “isoproterenol-induced changes in endogenous mRNA fetal gene program induction (all changes in fetal gene expression)” value in assay [1] (setting [2]) is recorded as “completely abrogated”.

On to `COc1ccc(S(=O)(=O)N(CCO)c2ccccc2CN(C)C/C=C/c2ccc(Cl)cc2)cc1` [KN-93], for which, in assay [1] (setting [2]), the “isoproterenol-associated down-regulation (repression) of SRCA2a” value is recorded as “not capable of preventing”, the “isoproterenol-associated down-regulation (repression) of α-MyHC” value is reported as “prevented”, the “isoproterenol-associated up-regulation (induction) of ANP” value was “prevented” and the “isoproterenol-associated up-regulation of BNP” value is “prevented”. For the same compound, in assay [1] (setting [2]), the “isoproterenol-associated up-regulation of skeletal α-actin” value is “prevented” and the “isoproterenol-induced changes in endogenous mRNA fetal gene program induction (all changes in fetal gene expression)” value was “prevented”. Besides, in assay [1] (setting [3]), the “ANP mRNA levels” value is listed as “decrease”, the “SRCA2a mRNA levels” value is “decrease” and the “β-MyHC mRNA levels” value is given as “decrease”. Besides, in the assay on ERK1/2 (inhibitor pre-treatment, 33 and 48 hour isoproterenol time points), the “activation of ERK1/2 in response to isoproterenol (phosphorylation)” value is “blocked”.

For `N#CC(=C(/N)Sc1ccccc1N)/C(C#N)=C(\N)Sc1ccccc1N` [U0126], in assay [1] (setting [4]), the “ISO-mediated down-regulation of αMyHC” value is given as “prevents” and the “ISO-mediated up-regulation of the fetal isoforms (fetal gene expression)” value is listed as “prevents”. Further, in assay [1] (setting [2]), the “isoproterenol-associated down-regulation (repression) of SRCA2a” value is “does not prevent”, the “isoproterenol-associated down-regulation (repression) of α-MyHC” value is “blocks; also recorded: prevents”, the “isoproterenol-associated up-regulation (induction) of ANP” value is “blocks” and the “isoproterenol-associated up-regulation of BNP” value is “blocks”. Also, in assay [1] (setting [2]), the “isoproterenol-associated up-regulation of skeletal α-actin” value is on record as “blocks” and the “up-regulation (activation) of β-MyHC in response to isoproterenol stimulation” value was “prevents”. For the same compound, the “ISO-mediated up-regulation of the fetal isoforms” value in assay [1] (inhibitor 1 hour prior to ISO treatment, mRNA extracted 48 hours later, RPA) is “prevents”. Moreover, the “isoproterenol activation of ERK1/2 (phosphorylation)” value in the assay on ERK1/2 (inhibitor pre-treatment) was “completely abrogates”.

In the case of `CC(C)NCC(O)c1ccc(O)c(O)c1` (centres unmarked) [isoproterenol], in the assay on ERK1/2 (isoproterenol stimulation, 5 minutes, 33 hours and 48 hours), the “ERK phosphorylation as a surrogate marker for activation” value was “increased”.
